Assays:
Format in all cases: in vivo, human
visceral pain [1] = experiment: Experimental visceral pain, heat stimulation of the oesophagus via hot water into the balloon, in healthy volunteers
From the text: (§1) The experimental studies referred to below, are based on a comparison of different drugs at healthy volunteers by applying experimental pain, since clinical studies provide insufficient information, partly due to the great difference that exists between patients and partly due to the fact that most diseases produce many symptoms other than pain, which affects the assessment of pain-killing efficacy. Experimental pain can be administered under controlled conditions in healthy volunteers so that this bias can be avoided. However, several experimental stimuli are necessary to simulate the complex clinical situation. It is also necessary to use different opioids to obtain sufficient differentiated knowledge about deep pain on different pain mechanisms, and an assessment of the clinical action spectrum of opioids. For testing the efficacy of different opioids for treating visceral pain a standardized test battery of cutaneous, muscular and visceral stimuli was applied. Blood samples were taken for determination of the opioid concentration in plasma.
(§2) In recent years methods by which deep and visceral stimuli can be administered reproducibly have been developed. These methods allow activation of the pain system with different stimuli, with the possibility of activating various types of nerve pathways in the same experiment. […]

muscular pain = experiment: Experimental muscular pain (pressure, electrical stimuli in muscle) in healthy volunteers; details: for analgesic effect in muscle versus placebo: oral solution, morphine 30 mg, oxycodone 15 mg, FIG. 1
From the text: as §1
In recent years methods by which deep and visceral stimuli can be administered reproducibly have been developed. These methods allow activation of the pain system with different stimuli, with the possibility of activating various types of nerve pathways in the same experiment. In the trial described herein the efficacy of different opioids on different types of stimuli of skin, muscles and bowel in healthy volunteers have been compared. Cutaneous and muscular pain was administered by pressure, current and temperature (skin only). The stimulation of the internal organs was also produced by pressure via a balloon located at the bottom of the oesophagus. The balloon can be distended and produce mechanical stimuli, which feel like mild pain/discomfort. In addition, cold and heat stimuli can be administered by passing water of differing temperature through the balloon. […]

visceral pain [2] = experiment: Experimental visceral pain, mechanical stimulation of the oesophagus via balloon distension, in healthy volunteers
From the text: as §1, §2

cutaneous pain = experiment: Experimental cutaneous pain (pressure, electrical, thermal stimuli on skin) in healthy volunteers
From the text: as §1, §2

[3] = oral oxycodone 15 mg vs morphine 30 mg and placebo, FIG. 2
[4] = oral, morphine 30 mg vs oxycodone 15 mg, all modalities tested

| SMILES | analgesic effect against heat pain stimulation in viscera (oesophagus), in comparison to placebo (visceral pain [1]; oral morphine 30 mg vs placebo) | analgesic effect in muscle versus placebo (muscular pain) | analgesic effect against mechanical stimulation in viscera (oesophagus), in comparison to placebo (visceral pain [2]; oral morphine 30 mg vs placebo) | analgesia against heat pain stimulation in viscera (oesophagus), in comparison to morphine and placebo (visceral pain [1]; [3]) | analgesic effect in the skin versus placebo (cutaneous pain; oral solution, morphine 30 mg, oxycodone 15 mg, FIG. 1) | difference in analgesic effect between morphine and oxycodone in the skin (cutaneous pain; [4]) | difference in analgesic effect between morphine and oxycodone in muscle (muscular pain; [4]) | analgesic effect against mechanical stimulation in viscera (oesophagus), in comparison to morphine and placebo (visceral pain [2]; [3]) |
| --- | --- | --- | --- | --- | --- | --- | --- | --- |
| CN1CC[C@]23c4c5ccc(O)c4O[C@H]2[C@@H](O)C=C[C@H]3[C@H]1C5 [morphine] | a certain analgesic effect | significantly more analgesic than placebo | a certain analgesic effect | – | – | – | – | – |
| COc1ccc2c3c1O[C@H]1C(=O)CC[C@@]4(O)[C@@H](C2)N(C)CC[C@]314 [oxycodone] | – | significantly more analgesic than placebo | – | significantly greater analgesia | significantly more analgesic than placebo | no significant difference between morphine and oxycodone | no significant difference between morphine and oxycodone | significantly better analgesic effect |
